“And” between values parts separate entries of the source, which are not always exact repeats. Equal entries are not always repeated. Where two headings read alike, the source gives them in different places.
Tests used:
[1] = Effective AUC from plasma concentration time profile in the PC3 tumour model; assay type: in vivo, mouse
Description: (§1) The human pharmacokinetic (PK) parameters (Table 9) were predicted based on the in vivo PK parameters obtained for rats (single species scaling), taking into account the interspecies differences in the free fraction (fu) in the plasma. The effective AUC (area under curve) was determined based on the measured plasma concentration time profile for in vivo efficacy in the PC3 tumour model of the mouse (nu/nu mouse).

[2] = molecular target: human ACC2 (Homo sapiens (Human), UniProt O00763); test: Human ACC2 enzyme assay (ADP-Glo); conditions: read-out: ACC 2 IC50, individual measurement (measurement no./preparation no. in table)
[3] = Maximum tolerated dose (MTD) in female nude mice; assay type: in vivo, mouse; conditions: for Deaths: 21 days, 1 administration per day; for MTD at 21 days: female, NMRI-nude (nu/nu), mouse, in vivo, 21-day treatment, administration once per day, oral
Description: To this end, initially the maximum tolerable dose (MTD) was determined using the following protocol:
The MTD was defined as the highest dose which could be administered without any animal dying during the treatment phase, and without any body weight loss of more than 10% compared to the initial weight.
(§2) Administration route: oral
• (Solutol HS15: polyoxyethylene ester of 12-hydroxystearic acid) Administration volume: 10 ml/kg: Protocol: see Table 7
The treatment phase was followed by an observation phase of 21 days.

[4] = tested on: human PC-3 cells; conditions: for T/C: final tumour weight
Description: Xenograft models in immunosuppressed mice were used to determine the antitumour activity in living organisms.
Use was made primarily of a prostate carcinoma model with hormone-independent human PC-3 cells in male nude mice (NMRI-nude (nu/nu) mice, Taconic M&B A/S). To this end, 3 million tumour cells (suspended in medium+Matrigel 1:1, final 0.1 ml) were injected subcutaneously into the side of each animal. When the tumours extended to an area of 20-30 mm^2, the mice were randomized into therapy groups and therapy was initiated. […] At this point in time, the experiment was terminated in all groups and the prepared tumours were weighed.
The T/C value was calculated as primary success parameter using the effect on the final tumour weight: mean tumour weight in the treatment group divided by mean of the tumour weight in the vehicle group.
as §2
Vehicle: PEG400/ethanol/Solutol HS 15 (70/5/25, v/v/v)
Administration volume: 10 ml/kg
Number of mice: see Table 8

[5] = Prediction of human pharmacokinetic parameters and human therapeutic dosage (single species scaling from rat); conditions: for pred. CL (human): predicted (fu-corrected) from rat PK
Description: as §1, with “mouse). The therapeutic human dosage was determined using the predicted human clearance (CL), assuming 100% bioavailability (F=1) and using the effective AUC in the animal model according to the formula below: […]” for “mouse).”

[6] = molecular target: human ACC1 (Homo sapiens, UniProt Q13085); test: Human ACC1 enzyme assay (ADP-Glo); assay type: biochemical; conditions: individual measurement (measurement no./preparation no. in table), read-out: ACC 1 IC50
Description: (§3) Typical concentrations were in the range of 1.75 μl.

[7] = tested on: human ACC1; test: Human ACC1 enzyme assay (ADP-Glo); assay type: biochemical
Description: as §3

[8] = tested on: PC3; test: Tumour cell proliferation, CellTiter-Glo, 96 h; assay type: cell-based; conditions: 96-hour incubation
Description: (§4) In accordance with the invention, the substances were tested in cell-based assays for the ability of the substances of inhibiting tumour cell proliferation after a 96-hour incubation with the substance. Cell viability was tested using the CellTiter-Glo® luminescent cell viability assay (Promega). The cells were sown at a density of 2000-5000 cells/well (depending on the cell line) in 100 μl growth medium on 96-well microtitre plates. For each cell line examined, cells were sown on a separate plate to determine the luminescence at t=0 hours and t=96 hours. After overnight incubation at 37° C., the luminescence values for the t=0 samples were determined. The dose plates for the t=96 hours points in time were treated with substances diluted with growth medium. The cells were then incubated at 37° C. for 96 hours, and the luminescence values for the t=96 hours samples were then determined. For data analysis, the t=0 values were subtracted from the t=96 hours values for treated and untreated samples. The differences in luminescence in percent between substance-treated samples and control values were used to determine the growth inhibition in percent.
(§5) The substances were tested in the following cell lines which represent the stated indications in an exemplary manner: […]

[9] = tested on: MCF7; test: Tumour cell proliferation, CellTiter-Glo, 96 h; assay type: cell-based; conditions: 96-hour incubation
Description: as §4, §5

[10] = tested on: KM12; test: Tumour cell proliferation, CellTiter-Glo, 96 h; assay type: cell-based; conditions: 96-hour incubation
Description: as §4, §5

[11] = tested on: H460; test: Tumour cell proliferation, CellTiter-Glo, 96 h; assay type: cell-based; conditions: 96-hour incubation
Description: as §4, §5

[12] = 100 mg/kg oral, 14 days, 1 administration per day
[13] = 100 mg/kg oral, 14 days, 2 administrations per day
[14] = 40 mg/kg oral, 20 days, 1 administration per day
[15] = 80 mg/kg oral, 14 days, 2 administrations per day
[16] = 80 mg/kg oral, 20 days, 1 administration per day

human ACC2, sequence (O00763 27-2458 limits assumed): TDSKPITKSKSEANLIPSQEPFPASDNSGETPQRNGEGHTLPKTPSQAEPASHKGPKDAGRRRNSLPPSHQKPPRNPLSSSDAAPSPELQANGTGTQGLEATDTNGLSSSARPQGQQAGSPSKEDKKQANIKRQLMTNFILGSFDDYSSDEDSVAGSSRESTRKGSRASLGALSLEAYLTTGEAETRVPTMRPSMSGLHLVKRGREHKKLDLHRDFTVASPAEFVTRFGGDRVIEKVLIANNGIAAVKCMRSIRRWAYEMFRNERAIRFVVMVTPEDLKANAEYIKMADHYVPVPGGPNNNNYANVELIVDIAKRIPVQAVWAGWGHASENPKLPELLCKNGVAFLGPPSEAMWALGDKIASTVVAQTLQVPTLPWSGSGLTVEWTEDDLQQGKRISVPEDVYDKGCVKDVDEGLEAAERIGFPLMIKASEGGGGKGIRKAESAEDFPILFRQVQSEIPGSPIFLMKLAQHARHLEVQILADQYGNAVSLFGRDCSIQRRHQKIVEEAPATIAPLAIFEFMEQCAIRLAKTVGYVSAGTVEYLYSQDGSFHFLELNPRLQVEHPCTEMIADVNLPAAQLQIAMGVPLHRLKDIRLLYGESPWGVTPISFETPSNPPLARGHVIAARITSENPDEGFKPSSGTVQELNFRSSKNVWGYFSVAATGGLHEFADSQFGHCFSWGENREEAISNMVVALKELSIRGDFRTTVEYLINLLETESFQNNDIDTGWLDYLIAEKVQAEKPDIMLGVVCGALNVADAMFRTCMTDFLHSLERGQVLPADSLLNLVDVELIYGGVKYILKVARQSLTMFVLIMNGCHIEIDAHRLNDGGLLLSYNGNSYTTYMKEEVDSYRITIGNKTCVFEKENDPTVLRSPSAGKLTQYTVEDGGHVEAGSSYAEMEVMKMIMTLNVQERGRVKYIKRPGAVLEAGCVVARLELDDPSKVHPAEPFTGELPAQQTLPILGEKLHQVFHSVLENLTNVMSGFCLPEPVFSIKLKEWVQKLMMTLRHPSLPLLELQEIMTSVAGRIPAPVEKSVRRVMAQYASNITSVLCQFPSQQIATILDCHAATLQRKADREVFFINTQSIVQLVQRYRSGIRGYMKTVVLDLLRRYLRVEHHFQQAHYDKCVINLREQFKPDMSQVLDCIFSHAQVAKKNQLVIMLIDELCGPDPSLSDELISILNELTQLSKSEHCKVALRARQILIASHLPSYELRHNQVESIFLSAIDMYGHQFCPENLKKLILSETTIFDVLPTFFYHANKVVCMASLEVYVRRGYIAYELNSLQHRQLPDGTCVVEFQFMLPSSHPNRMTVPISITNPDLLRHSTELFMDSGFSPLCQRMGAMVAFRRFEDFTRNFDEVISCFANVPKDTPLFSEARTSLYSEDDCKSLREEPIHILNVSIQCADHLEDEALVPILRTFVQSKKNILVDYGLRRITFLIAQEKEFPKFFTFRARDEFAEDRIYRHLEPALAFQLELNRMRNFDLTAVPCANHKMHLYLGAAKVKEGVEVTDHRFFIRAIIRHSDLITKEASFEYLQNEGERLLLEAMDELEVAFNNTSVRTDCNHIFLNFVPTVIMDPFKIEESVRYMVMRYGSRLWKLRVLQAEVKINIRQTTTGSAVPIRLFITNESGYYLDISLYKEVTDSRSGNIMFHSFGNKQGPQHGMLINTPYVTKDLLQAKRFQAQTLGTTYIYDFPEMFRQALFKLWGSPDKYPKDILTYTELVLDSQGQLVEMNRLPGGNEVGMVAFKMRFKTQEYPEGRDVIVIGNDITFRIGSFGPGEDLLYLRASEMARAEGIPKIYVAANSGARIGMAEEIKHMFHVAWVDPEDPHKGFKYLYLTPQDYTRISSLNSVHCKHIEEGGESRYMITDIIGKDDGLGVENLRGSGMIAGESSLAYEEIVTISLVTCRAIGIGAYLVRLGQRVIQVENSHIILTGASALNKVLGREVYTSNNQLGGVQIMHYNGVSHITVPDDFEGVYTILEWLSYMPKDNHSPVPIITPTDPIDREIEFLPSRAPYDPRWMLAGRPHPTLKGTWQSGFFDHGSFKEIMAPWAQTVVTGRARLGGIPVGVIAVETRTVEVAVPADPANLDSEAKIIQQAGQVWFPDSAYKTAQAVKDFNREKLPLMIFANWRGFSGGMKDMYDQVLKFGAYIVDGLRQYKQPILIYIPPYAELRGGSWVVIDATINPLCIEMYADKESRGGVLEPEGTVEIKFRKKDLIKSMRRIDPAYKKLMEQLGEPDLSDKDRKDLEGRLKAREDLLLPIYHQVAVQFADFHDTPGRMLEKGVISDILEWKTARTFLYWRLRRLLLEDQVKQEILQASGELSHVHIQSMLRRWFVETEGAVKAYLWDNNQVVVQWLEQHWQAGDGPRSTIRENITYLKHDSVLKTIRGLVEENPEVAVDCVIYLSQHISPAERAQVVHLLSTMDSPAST

Compound: CO[C@]1(C)CC[C@]2(CC1)NC(=O)C(c1cc(-c3ccc(Cl)cc3)ccc1C)=C2O [Example V.1-a, (5r,8r)-3-(4′-Chloro-4-methylbiphenyl-3-yl)-4-hydroxy-8-methoxy-8-methyl-1-azaspiro[4.5]dec-3-en-2-one]
- ther. AUC (mouse) ([1]; dosage (mouse) 100 mg/kg 1 × per day): 984 µg·h/mL
- ther. AUC (mouse) ([1]; dosage (mouse) 100 mg/kg 2 × per day): 1495 µg·h/mL
- IC50 [2]: 3130 nM and 3930 nM and 4540 nM and 2530 nM and 2330 nM and 2510 nM and 3360 nM and 2750 nM and 2030 nM and 2860 nM and 3320 nM and 5140 nM and 5200 nM
- IC50 ([2]; listed as V.3-a): 3130 nM and 3930 nM and 4540 nM and 2530 nM and 2330 nM and 2510 nM and 3360 nM and 2750 nM and 2030 nM and 2860 nM and 3320 nM and 5140 nM and 5200 nM
- Deaths ([3]; 25 mg/kg oral): 0 of 4
- Deaths ([3]; 50 mg/kg oral): 0 of 4
- Deaths ([3]; 100 mg/kg oral): 0 of 4
- MTD at 21 days [3]: > 100 mg/kg
- Deaths [4, 12]: 0 of 9
- T/C [4, 12]: 0.30
- Deaths [4, 13]: 2 of 9
- T/C [4, 13]: 0.15
- tolerability (good: body weight change <=minus 10% and 100% survival) ([4]; 100 mg/kg, administration 2 times per day): no good tolerability
- tolerability (good: body weight change <=minus 10% and 100% survival) ([4]; 100 mg/kg, administration once per day): good tolerability
- calc. AUC (human) ([5]; from mouse dosage 100 mg/kg 1 × per day): 6494 µg·h/mL
- calc. AUC (human) ([5]; from mouse dosage 100 mg/kg 2 × per day): 9867 µg·h/mL
- pred. CL (human) [5]: 3 mL/h/kg
- IC50 [6]: 108 nM and 182 nM and 132 nM and 97 nM and 55 nM and 104 nM and 213 nM and 137 nM and 151 nM and 81 nM and 91 nM and 147 nM and 158 nM
- Selectivity ACC1 vs. ACC2 (mean of the individual measurements ± standard deviation) [7]: 28.2 ± 8.5
- IC50 [8]: 35 nM
- IC50 [9]: 23 nM
- IC50 [10]: 38 nM
- IC50 [11]: 79 nM

Compound: CO[C@]1(C)CC[C@]2(CC1)NC(=O)C(c1cc(-c3ccc(Cl)c(F)c3)ccc1C)=C2O [Example V.2-a, (5r,8r)-3-(4′-Chloro-3′-fluoro-4-methylbiphenyl-3-yl)-4-hydroxy-8-methoxy-8-methyl-1-azaspiro[4.5]dec-3-en-2-one]
- ther. AUC (mouse) ([1]; dosage (mouse) 80 mg/kg 1 × per day): 544 µg·h/mL
- ther. AUC (mouse) ([1]; dosage (mouse) 80 mg/kg 2 × per day): 672 µg·h/mL
- IC50 [2]: 9560 nM and 9200 nM and 4990 nM and 5800 nM and 8630 nM and 7810 nM and 8810 nM and 3990 nM and 2140 nM and 2900 nM
- IC50 ([2]; listed as V.4-a): 9560 nM and 9200 nM and 4990 nM and 5800 nM and 8630 nM and 7810 nM and 8810 nM and 3990 nM and 2140 nM and 2900 nM
- Deaths ([3]; 10 mg/kg oral): 0 of 4
- Deaths ([3]; 20 mg/kg oral): 0 of 4
- Deaths ([3]; 40 mg/kg oral): 0 of 4
- Deaths ([3]; 80 mg/kg oral): 0 of 4
- MTD at 21 days [3]: > 80 mg/kg
- Deaths [4, 14]: 0 of 9
- T/C [4, 14]: 0.71
- Deaths [4, 15]: 1 of 9
- T/C [4, 15]: 0.27
- Deaths [4, 16]: 0 of 9
- T/C [4, 16]: 0.44
- tolerability (good: body weight change <=minus 10% and 100% survival) ([4]; 80 mg/kg, administration 2 times per day): no good tolerability
- tolerability (good: body weight change <=minus 10% and 100% survival) ([4]; 80 mg/kg, administration once per day): good tolerability
- calc. AUC (human) ([5]; from mouse dosage 80 mg/kg 1 × per day): 3737 µg·h/mL
- calc. AUC (human) ([5]; from mouse dosage 80 mg/kg 2 × per day): 4702 µg·h/mL
- pred. CL (human) [5]: 6 mL/h/kg
- IC50 ([6]; listed as V.4-a): 83 nM and 249 nM and 63 nM and 67 nM and 154 nM and 184 nM (2×) and 90 nM and 87 nM and 75 nM
- IC50 [6]: 83 nM and 249 nM and 63 nM and 67 nM and 154 nM and 184 nM (2×) and 90 nM and 87 nM and 75 nM
- Selectivity ACC1 vs. ACC2 (mean of the individual measurements ± standard deviation) [7]: 57.2 ± 6.4
- Selectivity ACC1 vs. ACC2 (mean of the individual measurements ± standard deviation) ([7]; listed as V.4-a): 57.2 ± 26.4
- IC50 [8]: 46 nM
- IC50 [9]: 32 nM
- IC50 [10]: 73 nM
- IC50 [11]: 82 nM

From patent publication US9278925B2, “Substituted 3-(biphenyl-3-yl)-4-hydroxy-8-methoxy-1-azaspiro[4.5]dec-3-en-2-one” (BAYER INTELLECTUAL PROPERTY GMBH, priority 2011, dated 2016)
